Laboratory results from patent US7235537B2, “N3 alkylated benzimidazole derivatives as MEK inhibitors” (Array BioPharma, Inc., priority 2002, dated 2007).

What follows are molecules tested on N-terminal 6 His-tagged, constitutively active MEK1 (2-393) (assay: MEK1 kinase assay (incorporation of γ-33P-phosphate from γ-33P-ATP onto ERK2)). Settings: 5 nM MEK1, 1 μM ERK2, 10 μM ATP, 45 minutes at ambient temperature, 1% DMSO.
Assay type: biochemical
Experimental: The activity of the compounds of the present invention may be determined by the following procedure. N-terminal 6 His-tagged, constitutively active MEK1 (2-393) is expressed in E. coli and protein is purified by conventional methods (Ahn et al., Science 1994, 265, 966-970). The activity of MEK1 is assessed by measuring the incorporation of γ-^33P-phosphate from γ-^33P-ATP onto N-terminal His tagged ERK2, which is expressed in E. coli and is purified by conventional methods, in the presence of MEK1. The assay is carried out in 96-well polypropylene plate. The incubation mixture (100 μL) comprises of 25 mM Hepes, pH 7.4, 10 mM MgCl2, 5 mM β-glycerolphosphate, 100 μM Na-orthovanadate, 5 mM DTT, 5 nM MEK1, and 1 μM ERK2. Inhibitors are suspended in DMSO, and all reactions, including controls are performed at a final concentration of 1% DMSO. Reactions are initiated by the addition of 10 μM ATP (with 0.5 μCi γ-^33P-ATP/well) and incubated at ambient temperature for 45 minutes. Equal volume of 25% TCA is added to stop the reaction and precipitate the proteins. Precipitated proteins are trapped onto glass fiber B filterplates, and excess labeled ATP washed off using a Tomtec MACH III harvester. Plates are allowed to air-dry prior to adding 30 μL/well of Packard Microscint 20, and plates are counted using a Packard TopCount.

Compound	Activity
Cn1cnc2c(F)c(Nc3ccc(Br)cc3Cl)c(C(=O)NOC(C)(C)CO)cc21 [Compound 29i]	active
Cc1cc(Br)ccc1Nc1c(C(=O)NOCC2CC2)cc2c(ncn2CCCCN2CCCCC2)c1F [Compound 18i]	active
O=C(NOCCO)c1cc2c(ncn2CC2CCCCO2)c(F)c1Nc1ccc(Br)cc1Cl (stereo not drawn) [Compound 11p, 6-(4-Bromo-2-chloro-phenylamino)-7-fluoro-3-(tetrahydro-pyran-2-ylmethyl)-3H-benzoimidazole-5-carboxylic acid (2-hydroxy-ethoxy)-amide]	active
O=C(NOCCO)c1cc2c(ncn2Cc2ccc(Cl)cc2)c(F)c1Nc1ccc(Br)cc1Cl [Compound 29t]	active
Cc1nc(Cn2cnc3c(F)c(Nc4ccc(Br)cc4Cl)c(C(=O)NOCCO)cc32)cs1 [Compound 29s]	active
Cn1cnc2c(F)c(Nc3ccc(Br)cc3Cl)c(C(=O)NOCCO)cc21 [Compound 29c, 6-(4-Bromo-2-chloro-phenylamino)-7-fluoro-3-methyl-3H-benzoimidazole-5-carboxylic acid (2-hydroxy-ethoxy)-amide]	active
Cc1cc(Br)ccc1Nc1c(C(=O)NOCC2CC2)cc2c(ncn2C)c1F [Compound 11c]	active
O=C(NOCC1CC1)c1cc2[nH]cnc2c(F)c1Nc1ccc(Br)cc1Cl [Compound 11b, 6-(4-Bromo-2-chloro-phenylamino)-7-fluoro-3H-benzoimidazole-5-carboxylic acid cyclopropylmethoxy-amide]	active
Cn1cnc2c(F)c(Nc3ccc(Br)cc3F)c(C(=O)NOCCO)cc21 [Compound 29lll]	active
O=C(NOCCO)c1cc2[nH]cnc2c(F)c1Nc1ccc(Br)cc1Cl [Compound 8n]	active
Cn1cnc2c(F)c(Nc3ccc(Br)cc3F)c(C(=O)NOC(C)(C)CO)cc21 [Compound 29mmm]	active
CCCCn1cnc2c(F)c(Nc3ccc(Br)cc3Cl)c(C(=O)NOCC3CC3)cc21 [Compound 29bb]	active
